Laboratory results: patent US20240309447A1, “METHODS AND KITS FOR PREPARING A SAMPLE […] OR MORE RNA MOLECULES FOR SEQUENCING” (The Hong Kong University of Science and Technology, priority 2023, published 2024)

Legend:
Format in all cases: biochemical
[1] = biological target: T1, E coli. poly(A) polymerase (Escherichia coli, UniProt P0ABF1); test: Poly(A) polymerase-based extension of model short RNA (A-terminated), Urea-PAGE; settings: for addition of nucleotide analogue sequence to the 3′ termini of the model short RNA: 1 mM analogue, 15 minutes, model short RNA (A-terminated)
Protocol: The reaction cocktail was used in the subsequent studies as described in examples below.
ATP was used as the positive control. The reaction cocktail for the poly(A) polymerase-based extension for each of the nucleoside analogue triphosphates and ATP was prepared as described in Table 2. The 10 μL of the reaction cocktail was incubated at 37° C. for 15 minutes to allow the extension of the adenine nucleotides (A) or nucleotide analogues. The reacted RNA products were visualized using Urea-PAGE.
The experiment was further repeated for 2-Amino-6-Cl-purine-rTP addition by poly(A) polymerase-based extension with different incubation times, i.e. 5, 10, 15, 20 minutes respectively. Addition of ATP by poly(A) polymerase-based extension with 20-minute incubation time was used as the positive control. The reacted RNA products were visualized using Urea-PAGE.

[2] = biological target: T1, E coli. poly(A) polymerase; test: Poly(A) polymerase-based extension of C, G and U-terminated model short RNAs, Urea-PAGE; settings: for addition of oligo nucleotide analogue to model short RNAs with different 3′ terminal bases: 1 mM, 37° C., 15 minutes
Protocol: In this example, 2-Amino-ATP, 2-Amino-6-Cl-purine-rTP and 2′-F-dATP have been tested for poly(A) polymerase-based extension to add the respective oligo nucleotide analogue sequences to the 3′ termini of model short RNAs with different terminal bases other than A, i.e. C, G and U-terminated model short RNAs as shown in Table 1. ATP was used as the positive control. The reaction cocktail for the poly(A) polymerase-based extension for each model short RNA was prepared as described in Table 2. The 10 μL of the reaction mixture was incubated at 37° C. for 15 minutes to allow the addition of 2-Amino-6-Cl-purine-rTP to the model short RNAs. The reacted RNA products were visualized using Urea-PAGE.

[3] = biological target: T1, E coli. poly(A) polymerase; test: Poly(A) polymerase-based extension of model mRNA mixture, Fragment Analyzer; settings: mixture of CLuc-53AGGCCCCU, EGFP-40A, UnaG-120A; 15-minute extension
Description: In this example, three model mRNAs CLuc-53AGGCCCCU, EGFP-40A, and UnaG-120A as shown in Table 1 are mixed in an equal amount to create a model mRNA mixture. The same poly(A) polymerase-based extension as described in Example 5 was used to add 2-Amino-6-Cl-purine-rTP to the model RNA mixture. Fragment Analyzer (Agilent®) was used to measure the lengths of the model RNA mixture before and after the reaction.

[4] = biological target: T1, E coli. poly(A) polymerase; test: One-pot 3′ extension of model short RNA, Urea-PAGE; settings: 15 minutes analogue, then ATP added, 37° C.
Protocol: In this example, the reaction cocktail for the one-pot 3′ extension of model short RNA (as shown in Table 1) was prepared as described in Table 4. The reaction cocktail (without ATP) was incubated at 37° C. for 15 minutes to allow for 2-Amino-6-Cl-purine-rTP addition. After 15 minutes of reaction, 1 μL of 10 mM ATP (New England BioLabs®) was directly added into the reaction mixture, and further incubated for different durations of time at 37° C.

[5] = biological target: T1, E coli. poly(A) polymerase; test: Poly(A) polymerase-based reaction with different nucleotide analogues and their combination on UnaG-120A mRNA, Fragment Analyzer; settings: for addition to UnaG-120A mRNA by poly(A) polymerase: 1 mM total analogue, 37° C., 15 minutes; for appearance of the RNA product: UnaG-120A mRNA, Fragment Analyzer
Protocol: In this example, the ability of poly(A) polymerase-based reaction to add different nucleotide analogues to the 3′ termini of UnaG-120A mRNA as the oligo nucleotide analogue sequence has been tested. […] The 10 μL of the reaction mixture was incubated at 37° C. for 15 minutes. The reacted RNA products were visualized using Fragment Analyzer.

T1 sequence (P0ABF1 11-465): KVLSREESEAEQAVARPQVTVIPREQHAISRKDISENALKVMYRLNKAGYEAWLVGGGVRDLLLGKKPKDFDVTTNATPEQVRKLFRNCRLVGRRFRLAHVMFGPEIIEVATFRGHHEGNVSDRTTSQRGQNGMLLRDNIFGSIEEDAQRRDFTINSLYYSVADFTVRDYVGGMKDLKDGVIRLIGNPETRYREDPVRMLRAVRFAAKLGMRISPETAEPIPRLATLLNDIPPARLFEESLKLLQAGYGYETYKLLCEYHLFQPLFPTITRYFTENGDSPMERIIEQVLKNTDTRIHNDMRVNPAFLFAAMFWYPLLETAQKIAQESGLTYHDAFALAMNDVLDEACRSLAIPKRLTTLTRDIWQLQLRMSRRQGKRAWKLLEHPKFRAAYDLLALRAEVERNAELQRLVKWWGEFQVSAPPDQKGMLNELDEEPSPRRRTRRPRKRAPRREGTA

| SMILES | addition of nucleotide analogue sequence to the 3′ termini of the model short RNA ([1]; 37° C.) | time within which the reaction was complete ([1]; 37° C., 1 mM) | nucleotides added to the 3′ terminus of model short RNA ([1]; 5 minutes incubation, 37° C., 1 mM) | length of tailed model short RNA product ([1]; 5 minutes incubation, original RNA 136 nt) | comparison among nucleotide analogues [2] | addition of oligo nucleotide analogue to model short RNAs with different 3′ terminal bases [2] | addition of oligo sequence to model mRNAs (upward band shift) [3] | sequential addition of oligo analogue sequence and oligo(A) sequence [4] | addition to UnaG-120A mRNA by poly(A) polymerase [5] | appearance of the RNA product [5] |
| --- | --- | --- | --- | --- | --- | --- | --- | --- | --- | --- |
| Nc1nc(Cl)c2ncn(C3OC(COP(=O)(O)OP(=O)(O)OP(=O)(O)O)C(O)C3O)c2n1 (stereo not shown) [2-Amino-6-Cl-purine-rTP] | successfully added | 10 to 20 min | over 60 nts | > 196 nt | produced the best results | successfully added | added to all model mRNAs | successfully added | can be added | upshifted clear main band |
| Nc1nc(N)c2ncn(C3OC(COP(=O)(O)OP(=O)(O)OP(=O)(O)O)C(O)C3O)c2n1 (stereo not shown) [2-Amino-ATP] | successfully added |  |  |  |  | successfully added |  |  | can be added | distribution of RNA sizes shown as a smear |
| Nc1ncnc2c1ncn2C1OC(COP(=O)(O)OP(=O)(O)OP(=O)(O)O)C(O)C1F (stereo not shown) [2′-F-dATP] | successfully added |  |  |  |  | successfully added |  |  |  |  |
